Measured values reported in patent publication US6831101B2, “Tricyclic rantes receptor ligands” (Chemokine Therapeutics Corporation, priority 2001, dated 2004).

Assays:
[1] = system: CCR-1, -3, -4, and -5 receptors on THP-1 cells; test: Competitive inhibition of 125I-RANTES binding to THP-1 cells; details: for % Inhibition (4 ug/ml) of 125I-RANTES binding: 4 ug/ml compound
Experimental: The binding studies were conducted using I^125 labeled RANTES as competitor and THP-1 cell lines.

[2] = system: RANTES-induced [Ca2+]i mobilization in THP-1 cells; test: Inhibition of RANTES-induced [Ca2+]i mobilization in THP-1 cells; type: cell-based
Experimental: A rapid, transient rise in the free cytosolic Ca^2+ concentration ([Ca^2+]i) is one of the events in neutrophil activation and is assumed to be involved in many of the subsequent cellular reactions. Both Ca^2+ release from intracellular stores and Ca^2+ influx from the extracellular space contribute to the rise in [Ca^2+]i. […] Fura-2,AM loaded THP-1 cells were incubated with CTCM189 for 60 min prior to induction of [Ca^2+]i mobilization by 10 nM RANTES.

[3] = system: murine Experimental Allergic Encephalomyelitis (EAE); test: EAE mouse model of multiple sclerosis, clinical severity grading; type: in vivo; details: 5, 20 and 40 mg/kg/day for 19 days, SJL/J mice, compared to control, FIG. 3
Source text: Experimental autoimmune encephalomyelitis (EAE) is a CD4^+ Th1-mediated inflammatory demyelinating disease of the central nervous system (CNS) that serves as a model for multiple sclerosis and other autoimmune diseases. It has previously been disclosed that RANTES regulates acute and relapsing autoimmune encephalomyelitis, and that RANTES production in the central nervous system is correlated with relapsing EAE development. In this example, the EAE mouse model (SJL/J mice) for MS is used, in which the disease is induced with Bordetella pertussis toxin (Claude C. A. et. al., (1975) Journal of Immunology 114(5): 1537-1540 and Hosseimi, H. et. al., (2000) Neurology 54 (7): A 166, An abstract presented in April 2000 on “Inhibition of proteosome prevents clinical signs in an experimental model of Multiple Sclerosis”).
Data for FIG. 3 was collected in an experiment involving five groups of 10 mice each, as follows: group I, normal control (no drug, no disease); group II, EAE control (MBP but no drug); group III, drug at 5 mg/kg body weight; group IV, drug at 20 mg/kg body weight; group V, drug at 40 mg/kg body weight. Three different concentrations of neoabietic acid were given to animals for 19 days: 5, 20, and 40 mg/kg/day in a volume of 100 ul Cremophore EL (Sigma). […]

Row | Structure (SMILES) | % Inhibition (4 ug/ml) of 125I-RANTES binding [1] [%] | IC50 ([2]; Homo sapiens, Fura-2,AM loaded THP-1 cells, 60 min preincubation, 10 nM RANTES) [nM] | Inhibition of RANTES-induced [Ca2+]i mobilization at 5 uM ([2]; THP-1 cells, 5 uM compound) | IC50 ([1]; I125 labeled RANTES, THP-1 cells, data of FIG. 1, read-out: IC50, inhibition of binding of RANTES to THP-1 cells expressing CCR-1, -3, -4, and -5) [nM] | Effect on clinical scores in EAE [3]
1 | C=C[C@]1(C)C=C2CC[C@@H]3[C@](C)(CCC[C@@]3(C)C(=O)O)[C@H]2CC1 [B, Sandaraco-pimaric acid] | 36 | – | – | – | –
2 | C=C[C@@]1(C)C=C2CC[C@@H]3[C@](C)(CCC[C@@]3(C)C(=O)O)[C@H]2CC1.N [C, Ammonium Pimarate] | 48 | – | – | – | –
3 | CC(C)=C1C=C2CC[C@@H]3[C@](C)(CCC[C@@]3(C)C(=O)O)[C@H]2CC1 [Compound 1, 8(14), 13(15)-abietadien-18-oic-acid] | 68 | 27.2 | almost complete inhibition | 253 | beneficial effect on the clinical scores
